{"source": "patent US9211310B2", "about": "“Use of a Chinese medicine composition in preparing medicaments for treating secondary prevention of myocardial infarction” (TASLY PHARMACEUTICAL GROUP CO., LTD, priority 2010, dated 2015)", "test_system": "patients after acute myocardial infarction", "experiment": "Life quality, Seattle Angina Questionnaire (SAQ), same clinical trial", "format": "in vivo, human", "text": "3508 patients who were in accordance with the diagnostic standards of AMI for 28 days to 2 years and differentiated as Qi deficiency and blood stagnation syndrome by TCM were studied. 0.5 g Chinese medicine composition prepared by the method of EXAMPLE 1 (Coded as QSYQ) was administrated half an hour after meal, 3 times per day.\nThere were 19 questions in the Seattle angina questionnaire (SAQ), including 5 parts: physical limitation (PL), anginal stability (AS), anginal frequency (AF), treatment satisfaction (TS) and disease perception (DP). After being given necessary explanation by doctors, the questions were answered independently by patients.\nThey included the overall survival time, angina pectoris score, TCM symptom score and life quality score, where angina pectoris score, TCM symptom score and life quality score were evaluated at randomization, in 1st, 3rd, 6th, 9th, 12th month after treatment and 18th month after follow-up.\nAll evaluation results of SAQ were described during the period of observation, and Wilcoxon rank sum test was used for inter-group comparison.\nThe evaluation results in the SAQ were depicted in different observations, and inter-group comparison was tested by Wilcoxon Rank-sum test."}
{"molecule": "CC(=O)Oc1ccccc1C(=O)O", "note": "[Control group, aspirine]", "values": [{"measurement": "SAQ Question 1-3: Slightly limited, percent of patients", "setting": "6 months after treatment, PP", "value": "(15.66%)"}, {"measurement": "SAQ Question 1-4: Mildly limited, number of patients", "setting": "6 months after treatment, PP", "value": 266}, {"measurement": "SAQ Question 1-4: Mildly limited, percent of patients", "setting": "6 months after treatment, PP", "value": "(18.37%)"}, {"measurement": "SAQ Question 1-4: Moderately limited, number of patients", "setting": "6 months after treatment, PP", "value": 74}, {"measurement": "SAQ Question 1-4: Moderately limited, percent of patients", "setting": "6 months after treatment, PP", "value": "(5.11%)"}, {"measurement": "SAQ Question 1-4: Not limited, number of patients", "setting": "6 months after treatment, PP", "value": 613}, {"measurement": "SAQ Question 1-4: Not limited, percent of patients", "setting": "6 months after treatment, PP", "value": "(42.33%)"}, {"measurement": "SAQ Question 1-4: Other reasons, number of patients", "setting": "6 months after treatment, PP", "value": 12}, {"measurement": "SAQ Question 1-4: Other reasons, percent of patients", "setting": "6 months after treatment, PP", "value": "(0.83%)"}, {"measurement": "SAQ Question 1-4: Severely limited, number of patients", "setting": "6 months after treatment, PP", "value": 20}, {"measurement": "SAQ Question 1-4: Severely limited, percent of patients", "setting": "6 months after treatment, PP", "value": "(1.38%)"}, {"measurement": "SAQ Question 1-4: Slightly limited, number of patients", "setting": "6 months after treatment, PP", "value": 463}, {"measurement": "SAQ Question 1-4: Slightly limited, percent of patients", "setting": "6 months after treatment, PP", "value": "(31.98%)"}, {"measurement": "SAQ Question 1-5: Mildly limited, number of patients", "setting": "6 months after treatment, PP", "value": 244}, {"measurement": "SAQ Question 1-5: Mildly limited, percent of patients", "setting": "6 months after treatment, PP", "value": "(16.86%)"}, {"measurement": "SAQ Question 1-5: Moderately limited, number of patients", "setting": "6 months after treatment, PP", "value": 109}, {"measurement": "SAQ Question 1-5: Moderately limited, percent of patients", "setting": "6 months after treatment, PP", "value": "(7.53%)"}, {"measurement": "SAQ Question 1-5: Not limited, number of patients", "setting": "6 months after treatment, PP", "value": 637}, {"measurement": "SAQ Question 1-5: Not limited, percent of patients", "setting": "6 months after treatment, PP", "value": "(44.02%)"}, {"measurement": "SAQ Question 1-5: Other reasons, number of patients", "setting": "6 months after treatment, PP", "value": 12}, {"measurement": "SAQ Question 1-5: Other reasons, percent of patients", "setting": "6 months after treatment, PP", "value": "(0.83%)"}, {"measurement": "SAQ Question 1-5: Severely limited, number of patients", "setting": "6 months after treatment, PP", "value": 12}, {"measurement": "SAQ Question 1-5: Severely limited, percent of patients", "setting": "6 months after treatment, PP", "value": "(0.83%)"}, {"measurement": "SAQ Question 1-5: Slightly limited, number of patients", "setting": "6 months after treatment, PP", "value": 433}, {"measurement": "SAQ Question 1-5: Slightly limited, percent of patients", "setting": "6 months after treatment, PP", "value": "(29.92%)"}, {"measurement": "SAQ Question 1-9: Mildly limited, % of cases", "setting": "6 months after treatment, PP", "value": "(20.47%)"}, {"measurement": "SAQ Question 1-9: Mildly limited, cases", "setting": "6 months after treatment, PP", "value": 289}, {"measurement": "SAQ Question 1-9: Moderately limited, % of cases", "setting": "6 months after treatment, PP", "value": "(21.60%)"}, {"measurement": "SAQ Question 1-9: Moderately limited, cases", "setting": "6 months after treatment, PP", "value": 305}, {"measurement": "SAQ Question 1-9: Not limited, % of cases", "setting": "6 months after treatment, PP", "value": "(3.54%)"}, {"measurement": "SAQ Question 1-9: Not limited, cases", "setting": "6 months after treatment, PP", "value": 50}, {"measurement": "SAQ Question 1-9: Other limited, % of cases", "setting": "6 months after treatment, PP", "value": "(6.37%)"}, {"measurement": "SAQ Question 1-9: Other limited, cases", "setting": "6 months after treatment, PP", "value": 90}, {"measurement": "SAQ Question 1-9: Severely limited, % of cases", "setting": "6 months after treatment, PP", "value": "(34.70%)"}, {"measurement": "SAQ Question 1-9: Severely limited, cases", "setting": "6 months after treatment, PP", "value": 490}, {"measurement": "SAQ Question 1-9: Slightly limited, % of cases", "setting": "6 months after treatment, PP", "value": "(13.31%)"}, {"measurement": "SAQ Question 1-9: Slightly limited, cases", "setting": "6 months after treatment, PP", "value": 188}, {"measurement": "SAQ 2nd question: 6, % of cases", "setting": "9 months after treatment, FAS", "value": "(0.00%)"}, {"measurement": "SAQ 2nd question: 6, cases", "setting": "9 months after treatment, FAS", "value": 0}, {"measurement": "SAQ 2nd question: Clearly increased, % of cases", "setting": "9 months after treatment, FAS", "value": "(1.44%)"}, {"measurement": "SAQ 2nd question: Clearly increased, cases", "setting": "9 months after treatment, FAS", "value": 25}, {"measurement": "SAQ 2nd question: Clearly reduced, % of cases", "setting": "9 months after treatment, FAS", "value": "(24.17%)"}, {"measurement": "SAQ 2nd question: Clearly reduced, cases", "setting": "9 months after treatment, FAS", "value": 421}, {"measurement": "SAQ 2nd question: Same, % of cases", "setting": "9 months after treatment, FAS", "value": "(35.94%)"}, {"measurement": "SAQ 2nd question: Same, cases", "setting": "9 months after treatment, FAS", "value": 626}, {"measurement": "SAQ 2nd question: Slightly increased, % of cases", "setting": "9 months after treatment, FAS", "value": "(3.96%)"}, {"measurement": "SAQ 2nd question: Slightly increased, cases", "setting": "9 months after treatment, FAS", "value": 69}, {"measurement": "SAQ 2nd question: Slightly reduced, % of cases", "setting": "9 months after treatment, FAS", "value": "(34.50%)"}, {"measurement": "SAQ 2nd question: Slightly reduced, cases", "setting": "9 months after treatment, FAS", "value": 601}, {"measurement": "SAQ 3rd question: 1-2 times per week, % of cases", "setting": "9 months after treatment, FAS", "value": "(34.50%)"}, {"measurement": "SAQ 3rd question: 1-2 times per week, cases", "setting": "9 months after treatment, FAS", "value": 601}, {"measurement": "SAQ 3rd question: 1-3 times per day, % of cases", "setting": "9 months after treatment, FAS", "value": "(3.96%)"}, {"measurement": "SAQ 3rd question: 1-3 times per day, cases", "setting": "9 months after treatment, FAS", "value": 69}, {"measurement": "SAQ 3rd question: <1 time per week, % of cases", "setting": "9 months after treatment, FAS", "value": "(24.17%)"}, {"measurement": "SAQ 3rd question: <1 time per week, cases", "setting": "9 months after treatment, FAS", "value": 421}, {"measurement": "SAQ 3rd question: No onset, % of cases", "setting": "9 months after treatment, FAS", "value": "(0.00%)"}, {"measurement": "SAQ 3rd question: No onset, cases", "setting": "9 months after treatment, FAS", "value": 0}, {"measurement": "SAQ 3rd question: ≧3 times per week, % of cases", "setting": "9 months after treatment, FAS", "value": "(35.94%)"}, {"measurement": "SAQ 3rd question: ≧3 times per week, cases", "setting": "9 months after treatment, FAS", "value": 626}, {"measurement": "SAQ 3rd question: ≧4 times per day, % of cases", "setting": "9 months after treatment, FAS", "value": "(1.44%)"}, {"measurement": "SAQ 3rd question: ≧4 times per day, cases", "setting": "9 months after treatment, FAS", "value": 25}, {"measurement": "SAQ Question 1-3: Mildly limited, number of patients", "setting": "9 months after treatment, FAS", "value": 58}, {"measurement": "SAQ Question 1-3: Mildly limited, percent of patients", "setting": "9 months after treatment, FAS", "value": "(3.33%)"}, {"measurement": "SAQ Question 1-3: Moderately limited, number of patients", "setting": "9 months after treatment, FAS", "value": 17}, {"measurement": "SAQ Question 1-3: Moderately limited, percent of patients", "setting": "9 months after treatment, FAS", "value": "(0.97%)"}, {"measurement": "SAQ Question 1-3: Not limited, number of patients", "setting": "9 months after treatment, FAS", "value": 1421}, {"measurement": "SAQ Question 1-3: Not limited, percent of patients", "setting": "9 months after treatment, FAS", "value": "(81.48%)"}, {"measurement": "SAQ Question 1-3: Other reasons, number of patients", "setting": "9 months after treatment, FAS", "value": 8}, {"measurement": "SAQ Question 1-3: Other reasons, percent of patients", "setting": "9 months after treatment, FAS", "value": "(0.46%)"}, {"measurement": "SAQ Question 1-3: Severely limited, number of patients", "setting": "9 months after treatment, FAS", "value": 2}, {"measurement": "SAQ Question 1-3: Severely limited, percent of patients", "setting": "9 months after treatment, FAS", "value": "(0.11%)"}, {"measurement": "SAQ Question 1-3: Slightly limited, number of patients", "setting": "9 months after treatment, FAS", "value": 238}, {"measurement": "SAQ Question 1-3: Slightly limited, percent of patients", "setting": "9 months after treatment, FAS", "value": "(13.65%)"}, {"measurement": "SAQ Question 1-4: Mildly limited, number of patients", "setting": "9 months after treatment, FAS", "value": 264}, {"measurement": "SAQ Question 1-4: Mildly limited, percent of patients", "setting": "9 months after treatment, FAS", "value": "(15.14%)"}, {"measurement": "SAQ Question 1-4: Moderately limited, number of patients", "setting": "9 months after treatment, FAS", "value": 85}, {"measurement": "SAQ Question 1-4: Moderately limited, percent of patients", "setting": "9 months after treatment, FAS", "value": "(4.87%)"}]}
